The supplement of paper PMC8149375

Tests used:
Conditions in all cases: treatment: drug + dasatinib (fixed dose, not stated); 5 days
769-P [1] = assay: GI50 of drug in presence of dasatinib; higher = less potent
Method: (§1)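 Primary HTS combination arm: 8 RCC cell lines treated with 8 doses (up to 10 uM) of each library drug plus a fixed dose of dasatinib (dose not stated) for 5 days; viability read by CellTiter-Glo and normalised to DMSO. GI50 was fitted with XLfit, AUC is the area under the dose-response curve, and minimum viability is the lowest fraction of DMSO viability across doses.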

UO-31 [2] = assay: as above
Method: as §1

ACHN [3] = assay: as above
Method: as §1

786-O [4] = assay: as above
Method: as §1

SN12C [5] = assay: as above
Method: as §1

A498 [6] = assay: as above
Method: as §1

CAKI-1 [7] = assay: as above
Method: as §1

TK-10 [8] = assay: as above
Method: as §1

769-P [9] = assay: AUC of dose-response viability curve, drug + dasatinib, normalised to DMSO (arbitrary (AUC of normalised viability)); higher = less growth inhibition
Method: as §1

UO-31 [10] = assay: as above
Method: as §1

ACHN [11] = assay: as above
Method: as §1

786-O [12] = assay: as above
Method: as §1

SN12C [13] = assay: as above
Method: as §1

A498 [14] = assay: as above
Method: as §1

CAKI-1 [15] = assay: as above
Method: as §1

TK-10 [16] = assay: as above
Method: as §1

769-P [17] = assay: minimum viability across doses, drug + dasatinib, relative to DMSO (fraction); higher = less growth inhibition
Method: as §1

UO-31 [18] = assay: as above
Method: as §1

ACHN [19] = assay: as above
Method: as §1

786-O [20] = assay: as above
Method: as §1

SN12C [21] = assay: as above
Method: as §1

A498 [22] = assay: as above
Method: as §1

CAKI-1 [23] = assay: as above
Method: as §1

TK-10 [24] = assay: as above
Method: as §1

| GI50 of drug (ACHN [3]) [nM] | GI50 of drug (786-O [4]) [nM] | SMILES | GI50 of drug (769-P [1]) [nM] | GI50 of drug (UO-31 [2]) [nM] | GI50 of drug (SN12C [5]) [nM] | GI50 of drug (A498 [6]) [nM] | GI50 of drug (CAKI-1 [7]) [nM] | GI50 of drug (TK-10 [8]) [nM] | AUC of dose-response viability curve (769-P [9]) | AUC of dose-response viability curve (UO-31 [10]) | AUC of dose-response viability curve (ACHN [11]) | AUC of dose-response viability curve (786-O [12]) | AUC of dose-response viability curve (SN12C [13]) | AUC of dose-response viability curve (A498 [14]) | AUC of dose-response viability curve (CAKI-1 [15]) | AUC of dose-response viability curve (TK-10 [16]) | minimum viability across doses (769-P [17]) | minimum viability across doses (UO-31 [18]) | minimum viability across doses (ACHN [19]) | minimum viability across doses (786-O [20]) | minimum viability across doses (SN12C [21]) | minimum viability across doses (A498 [22]) | minimum viability across doses (CAKI-1 [23]) | minimum viability across doses (TK-10 [24]) |
| --- | --- | --- | --- | --- | --- | --- | --- | --- | --- | --- | --- | --- | --- | --- | --- | --- | --- | --- | --- | --- | --- | --- | --- | --- |
| 9070 | > 10000 | CNC(=O)c1ccc(-c2cnc3ncc(Cc4ccc5ncccc5c4)n3n2)cc1F + Cc1nc(Nc2ncc(C(=O)Nc3c(C)cccc3Cl)s2)cc(N2CCN(CCO)CC2)n1 [dasatinib] | 7570 | > 10000 | > 10000 | > 10000 | > 10000 | > 10000 | 2.42 | 4.11 | 2.05 | 2.19 | 2.42 | 3.63 | 2.26 | 2.44 | 0.457 | 0.991 | 0.497 | 0.576 | 0.659 | 0.918 | 0.571 | 0.656 |
| 999 | 2090 | c1ccc2c(-c3cnn4cc(-c5ccc(N6CCNCC6)cc5)cnc34)ccnc2c1 + Cc1nc(Nc2ncc(C(=O)Nc3c(C)cccc3Cl)s2)cc(N2CCN(CCO)CC2)n1 [dasatinib] | 1340 | 3050 | 1580 | 3180 | 1790 | 3060 | 2.03 | 3.73 | 1.77 | 2.41 | 2.19 | 3.1 | 2.19 | 2.51 | 0.00161 | 0.00301 | 0.0011 | 0.00229 | 0.00173 | 0.00332 | 0.00191 | 0.00532 |
| 334 | 343 | Nc1nc(Nc2ccc(S(N)(=O)=O)cc2)nn1C(=O)c1c(F)cccc1F + Cc1nc(Nc2ncc(C(=O)Nc3c(C)cccc3Cl)s2)cc(N2CCN(CCO)CC2)n1 [dasatinib] | 3160 | 4120 | 3690 | 4680 | 1250 | > 10000 | 2.24 | 3.26 | 1.56 | 1.7 | 2.48 | 2.82 | 1.99 | 2.57 | 0.0371 | 0.00972 | 0.00508 | 0.00366 | 0.142 | 0.269 | 0.0394 | 0.623 |
| 8.21 | 4.97 | COc1ncc(-c2ccc3nccc(-c4ccnnc4)c3c2)cc1NS(=O)(=O)c1ccc(F)cc1F + Cc1nc(Nc2ncc(C(=O)Nc3c(C)cccc3Cl)s2)cc(N2CCN(CCO)CC2)n1 [dasatinib] | 18.4 | 28.1 | 19 | 168 | 7.86 | 16.5 | 0.957 | 0.993 | 0.822 | 0.564 | 1.1 | 1.82 | 0.66 | 0.955 | 0.0228 | 0.00632 | 0.0717 | 0.00295 | 0.104 | 0.158 | 0.00939 | 0.0271 |
| 456 | 213 | CCn1c(-c2nonc2N)nc2c(C#CC(C)(C)O)ncc(OC[C@H]3CCCNC3)c21 + Cc1nc(Nc2ncc(C(=O)Nc3c(C)cccc3Cl)s2)cc(N2CCN(CCO)CC2)n1 [dasatinib] | > 10000 | > 10000 | > 10000 | > 10000 | 2670 | 1930 | 2.43 | 2.8 | 1.8 | 1.74 | 2.45 | 3.07 | 2.29 | 2.22 | 0.627 | 0.642 | 0.274 | 0.189 | 0.66 | 0.802 | 0.305 | 0.421 |
| 4110 | 3470 | C[C@@H]1CN(CC(=O)Nc2ccc3c(c2)Cc2cccc(-c4cc(=O)cc(N5CCOCC5)o4)c2S3)C[C@H](C)O1 + Cc1nc(Nc2ncc(C(=O)Nc3c(C)cccc3Cl)s2)cc(N2CCN(CCO)CC2)n1 [dasatinib] | 5520 | 6110 | > 10000 | > 10000 | 3790 | > 10000 | 2.37 | 4.18 | 2.04 | 2.51 | 2.48 | 3.33 | 2.15 | 2.69 | 0.373 | 0.213 | 0.381 | 0.282 | 0.511 | 0.771 | 0.165 | 0.589 |
| 1800 | 763 | O=c1cc(N2CCOCC2)oc2c(-c3cccc4c3sc3ccccc34)cccc12 + Cc1nc(Nc2ncc(C(=O)Nc3c(C)cccc3Cl)s2)cc(N2CCN(CCO)CC2)n1 [dasatinib] | 3090 | 2850 | > 10000 | 8330 | 847 | 4630 | 2.36 | 3.36 | 2.09 | 1.89 | 2.38 | 3.4 | 1.96 | 2.52 | 0.225 | 0.0435 | 0.139 | 0.0139 | 0.401 | 0.442 | 0.112 | 0.289 |
| 69.5 | > 10000 | c1ccc2c(CCNc3ccc(Nc4ccncc4)cc3)c[nH]c2c1 + Cc1nc(Nc2ncc(C(=O)Nc3c(C)cccc3Cl)s2)cc(N2CCN(CCO)CC2)n1 [dasatinib] | 280 | 372 | 672 | 748 | 143 | 531 | 1.69 | 2.3 | 1.1 | 1.39 | 1.86 | 2.32 | 1.49 | 1.83 | 0.0334 | 0.0188 | 0.00193 | 0.00475 | 0.00337 | 0.0451 | 0.0392 | 0.00918 |
| 20 | > 10000 | O=c1cc(-c2cccc3c2Sc2ccccc2S3)oc(N2CCOCC2)c1 + Cc1nc(Nc2ncc(C(=O)Nc3c(C)cccc3Cl)s2)cc(N2CCN(CCO)CC2)n1 [dasatinib] | > 10000 | > 10000 | > 10000 | > 10000 | 4310 | > 10000 | 2.38 | 3.22 | 1.86 | 2.43 | 2.48 | 3.16 | 2.12 | 2.57 | 0.635 | 0.7 | 0.449 | 0.561 | 0.659 | 0.747 | 0.31 | 0.682 |
| 436 | 262 | Cc1cc(Nc2cc(CN3CCOCC3)c3nc(C)c(Cc4ccc(Cl)cc4F)n3n2)[nH]n1 + Cc1nc(Nc2ncc(C(=O)Nc3c(C)cccc3Cl)s2)cc(N2CCN(CCO)CC2)n1 [dasatinib] | 1620 | 2610 | 1340 | 4200 | 410 | 1950 | 2.24 | 3.83 | 1.75 | 1.65 | 2.1 | 3.43 | 1.73 | 2.43 | 0.0393 | 0.0199 | 0.0702 | 0.00749 | 0.105 | 0.194 | 0.00448 | 0.0211 |
| 24.9 | > 10000 | CC(C)(C)Cn1c(N)nc2ccc(-c3[nH]c(C(C)(C)C)nc3-c3ccc(F)cc3)nc21.CS(=O)(=O)O.CS(=O)(=O)O + Cc1nc(Nc2ncc(C(=O)Nc3c(C)cccc3Cl)s2)cc(N2CCN(CCO)CC2)n1 [dasatinib] | 1760 | > 10000 | > 10000 | > 10000 | 4370 | 5500 | 2.07 | 3.24 | 1.45 | 2.48 | 2.36 | 3.68 | 2.18 | 2.23 | 0.255 | 0.508 | 0.244 | 0.617 | 0.54 | 0.949 | 0.435 | 0.447 |
| 50.7 | 478 | COc1ccc(-c2ccc3c(N4CCOCC4)nc(N4C[C@@H](C)O[C@@H](C)C4)nc3n2)cc1CO + Cc1nc(Nc2ncc(C(=O)Nc3c(C)cccc3Cl)s2)cc(N2CCN(CCO)CC2)n1 [dasatinib] | 360 | 1100 | 482 | 1830 | 250 | 379 | 1.75 | 2.56 | 1.33 | 1.93 | 2.03 | 2.77 | 1.56 | 1.87 | 0.136 | 0.0195 | 0.0839 | 0.176 | 0.196 | 0.252 | 0.0643 | 0.168 |
| > 10000 | > 10000 | Cn1cc(-c2ccc3nnc(C(F)(F)c4ccc5ncccc5c4)n3n2)cn1 + Cc1nc(Nc2ncc(C(=O)Nc3c(C)cccc3Cl)s2)cc(N2CCN(CCO)CC2)n1 [dasatinib] | 7400 | > 10000 | > 10000 | > 10000 | > 10000 | > 10000 | 2.32 | 3.52 | 1.87 | 2.54 | 2.34 | 3.2 | 2.24 | 2.6 | 0.469 | 0.923 | 0.499 | 0.566 | 0.614 | 0.854 | 0.592 | 0.646 |

| SMILES | GI50 of drug (ACHN [3]) [nM] | GI50 of drug (786-O [4]) [nM] | GI50 of drug (769-P [1]) [nM] | GI50 of drug (UO-31 [2]) [nM] | GI50 of drug (SN12C [5]) [nM] | GI50 of drug (A498 [6]) [nM] | GI50 of drug (CAKI-1 [7]) [nM] | GI50 of drug (TK-10 [8]) [nM] | AUC of dose-response viability curve (769-P [9]) | AUC of dose-response viability curve (UO-31 [10]) | AUC of dose-response viability curve (ACHN [11]) | AUC of dose-response viability curve (786-O [12]) | AUC of dose-response viability curve (SN12C [13]) | AUC of dose-response viability curve (A498 [14]) | AUC of dose-response viability curve (CAKI-1 [15]) | AUC of dose-response viability curve (TK-10 [16]) | minimum viability across doses (769-P [17]) | minimum viability across doses (UO-31 [18]) | minimum viability across doses (ACHN [19]) | minimum viability across doses (786-O [20]) | minimum viability across doses (SN12C [21]) | minimum viability across doses (A498 [22]) | minimum viability across doses (CAKI-1 [23]) | minimum viability across doses (TK-10 [24]) |
| --- | --- | --- | --- | --- | --- | --- | --- | --- | --- | --- | --- | --- | --- | --- | --- | --- | --- | --- | --- | --- | --- | --- | --- | --- |
| CN1CCN(c2ccc([N+](=O)[O-])c3no[n+]([O-])c23)CC1 + Cc1nc(Nc2ncc(C(=O)Nc3c(C)cccc3Cl)s2)cc(N2CCN(CCO)CC2)n1 [dasatinib] | > 10000 | > 10000 | > 10000 | > 10000 | > 10000 | > 10000 | > 10000 | > 10000 | 2.12 | 3.44 | 2.07 | 2.2 | 2.52 | 3.19 | 2.27 | 2.41 | 0.644 | 0.864 | 0.539 | 0.517 | 0.687 | 0.862 | 0.624 | 0.64 |
